According to patent publication US9943504B2, “Arginine methyltransferase inhibitors and uses thereof” (Epizyme, Inc., priority 2013, dated 2018):

System: mono-methyl arginine in RKO cells
Test: RKO Methylation Assay (In Cell Western)
Type: cell-based
Details: 72 hours, percent activation
From the text: RKO adherent cells were purchased from ATCC (American Type Culture Collection), Manassas, Va., USA. DMEM/Glutamax medium, penicillin-streptomycin, heat inactivated fetal bovine serum, 0.05% trypsin and D-PBS were purchased from Life Technologies, Grand Island, N.Y., USA. Odyssey blocking buffer, 800CW goat anti-rabbit IgG (H+L) antibody, and Licor Odyssey infrared scanner were purchased from Licor Biosciences, Lincoln, Nebr., USA. Mono-methyl arginine antibody was purchased from Cell Signaling Technology, Danvers, Mass., USA. Methanol was purchased from VWR, Franklin, Mass., USA. 10% Tween 20 was purchased from KPL, Inc., Gaithersburg, Md., USA. DRAQ5 was purchased from Biostatus Limited, Leicestershire, UK.
RKO adherent cells were maintained in growth medium (DMEM/Glutamax medium supplemented with 10% v/v heat inactivated fetal bovine serum and 100 units/mL penicillin-streptomycin) and cultured at 37° C. under 5% CO2.
Cell Treatment, in Cell Western (ICW) for Detection of Mono-Methyl Arginine and DNA Content.
RKO cells were seeded in assay medium at a concentration of 20,000 cells per mL to a poly-D-lysine coated 384 well culture plate (BD Biosciences 356697) with 50 μL per well. Compound (100 nL) from a 96-well source plate was added directly to 384 well cell plate. Plates were incubated at 37° C., 5% CO2 for 72 hours. After three days of incubation, plates were brought to room temperature outside of the incubator for ten minutes and blotted on paper towels to remove cell media. 50 μL of ice cold 100% methanol was added directly to each well and incubated for 30 min at room temperature. After 30 min, plates were transferred to a Biotek EL406 plate washer and washed 2 times with 100 μL per well of wash buffer (1×PBS). Next 60 μL per well of Odyssey blocking buffer (Odyssey Buffer with 0.1% Tween 20 (v/v)) were added to each plate and incubated 1 hour at room temperature. Blocking buffer was removed and 20 μL per well of primary antibody was added (mono-methyl arginine diluted 1:200 in Odyssey buffer with 0.1% Tween 20 (v/v)) and plates were incubated overnight (16 hours) at 4° C. Plates were washed 5 times with 100 μL per well of wash buffer. Next 20 μL per well of secondary antibody was added (1:200 800CW goat anti-rabbit IgG (H+L) antibody, 1:1000 DRAQ5 (Biostatus limited) in Odyssey buffer with 0.1% Tween 20 (v/v)) and incubated for 1 hour at room temperature. The plates were washed 5 times with 100 μL per well wash buffer then 2 times with 100 μL per well of water. Plates were allowed to dry at room temperature then imaged on the Licor Odyssey machine which measures integrated intensity at 700 nm and 800 nm wavelengths. Both 700 and 800 channels were scanned.
First, the ratio for each well was determined by:
Each plate included fourteen control wells of DMSO only treatment (minimum activation) as well as fourteen control wells for maximum activation treated with 20 μM of a reference compound. The average of the ratio values for each control type was calculated and used to determine the percent activation for each test well in the plate. Reference compound was serially diluted three-fold in DMSO for a total of nine test concentrations, beginning at 20 μM. Percent activation was determined and EC30 curves were generated using triplicate wells per concentration of compound.

SMILES: CNCCN(C)Cc1n[nH]c2ccc(OCc3cc[nH]n3)cc12 [Compound 17]
- RGG ICW EC30: C (“C” indicates an EC30 ≥ 12.01 μM)

SMILES: CNCCN(C)Cc1n[nH]c2ccc(OC(C)C(C)C)cc12 (centres unmarked) [Compound 4]
- RGG ICW EC30: A (“A” indicates an EC30 ≤ 3.00 μM)

SMILES: CNCCN(C)Cc1n[nH]c2ccc(OCCc3ccccc3)cc12 [Compound 7]
- RGG ICW EC30: A (“A” indicates an EC30 ≤ 3.00 μM)

SMILES: CNCCN(C)Cc1n[nH]c2ccc(OC3CCCC3)cc12 [Compound 11]
- RGG ICW EC30: A (“A” indicates an EC30 ≤ 3.00 μM)

SMILES: CC(C)COc1ccc2[nH]nc(CN(C)CCN)c2c1 [Compound 2, N^1-((5-iso-butoxy-1H-indazol-3-yl)methyl)-N^1-methylethane-1,2-diamine]
- RGG ICW EC30: B (“B” indicates an EC30 of 3.01-12.00 μM)

SMILES: CNCCN(C)Cc1n[nH]c2ccc(OCCC(C)C)cc12 [Compound 8]
- RGG ICW EC30: A (“A” indicates an EC30 ≤ 3.00 μM)

SMILES: CNCCN(C)Cc1n[nH]c2ccc(OCc3ccccn3)cc12 [Compound 12]
- RGG ICW EC30: B (“B” indicates an EC30 of 3.01-12.00 μM)

SMILES: CNCCN(C)Cc1n[nH]c2ccc(OCCCOC)cc12 [Compound 6]
- RGG ICW EC30: A (“A” indicates an EC30 ≤ 3.00 μM)

SMILES: CNCCN(C)Cc1nn(C)c2ccc(OCC(C)C)cc12 [Compound 3, N^1-((5-iso-butoxy-1-methyl-1H-indazol-3-yl)methyl)-N^1,N^2-dimethylethane-1,2-diamine]
- RGG ICW EC30: C (“C” indicates an EC30 ≥ 12.01 μM)

SMILES: CNCCN(C)Cc1n[nH]c2ccc(OCc3cccc(C#N)c3)cc12 [Compound 14]
- RGG ICW EC30: B (“B” indicates an EC30 of 3.01-12.00 μM)

SMILES: CNCCN(C)Cc1n[nH]c2ccc(OC(C)Cc3ccccc3)cc12 (centres unmarked) [Compound 9]
- RGG ICW EC30: B (“B” indicates an EC30 of 3.01-12.00 μM)

SMILES: CNCCN(C)Cc1n[nH]c2ccc(OCc3ccc(C#N)cc3)cc12 [Compound 13]
- RGG ICW EC30: B (“B” indicates an EC30 of 3.01-12.00 μM)

SMILES: CNCCN(C)Cc1n[nH]c2ccc(Oc3ccccc3)cc12 [Compound 10, N^1,N^2-dimethyl-N^1-((5-phenoxy-1H-indazol-3-yl)methyl)ethane-1,2-diamine]
- RGG ICW EC30: B (“B” indicates an EC30 of 3.01-12.00 μM)

SMILES: CNCCN(C)Cc1n[nH]c2ccc(OCCOC)cc12 [Compound 5, N^1-((5-(2-methoxyethoxy)-1H-indazol-3-yl)methyl)-N^1,N^2-dimethylethane-1,2-diamine]
- RGG ICW EC30: B (“B” indicates an EC30 of 3.01-12.00 μM)
